From paper PMC7750190, “GapB Is Involved in Biofilm Formation Dependent on LrgAB but Not the SinI/R System in Bacillus cereus 0-9” (Frontiers in Microbiology, 2020)

Target: T1, GapB (Bacillus cereus, UniProt Q817G8)
T1 construct: gene BC_4583; full gapB gene in pET28a, GapB-His6, E. coli BL21 (DE3), Ni-IMAC and Superdex 200, 42 kDa by SDS-PAGE
Test: NAD(P)H production at […] nm
Assay type: biochemical
Conditions: 20 mM glyceraldehyde-3-phosphate, 50 mM Na2HPO4, 5 mM EDTA, pH 7.5, 37°C, 30 min

T1 sequence (Q817G8 entry or part of it): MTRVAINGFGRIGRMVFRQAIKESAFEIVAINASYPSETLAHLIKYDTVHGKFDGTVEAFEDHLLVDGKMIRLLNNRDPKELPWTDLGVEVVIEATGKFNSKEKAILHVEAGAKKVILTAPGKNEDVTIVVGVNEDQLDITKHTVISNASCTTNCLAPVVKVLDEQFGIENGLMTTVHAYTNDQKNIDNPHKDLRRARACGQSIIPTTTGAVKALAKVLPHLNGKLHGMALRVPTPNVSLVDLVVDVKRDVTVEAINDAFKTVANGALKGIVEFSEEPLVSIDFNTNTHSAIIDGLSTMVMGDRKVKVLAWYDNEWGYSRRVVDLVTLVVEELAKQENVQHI

Compound	NAD(P)H production at 340 nm (2 mM NADP+)	NAD(P)H production at 340 nm (10 mM NAD+)
NC(=O)c1ccc[n+]([C@@H]2O[C@H](COP(=O)(O)OP(=O)(O)OC[C@H]3O[C@@H](n4cnc5c(N)ncnc54)[C@H](OP(=O)(O)O)[C@@H]3O)[C@@H](O)[C@H]2O)c1 [NADP^+]	GapB protein has enzyme activities with either NAD^+ or NADP^+ as a cofactor	–
NC(=O)c1ccc[n+]([C@@H]2O[C@H](COP(=O)(O)OP(=O)(O)OC[C@H]3O[C@@H](n4cnc5c(N)ncnc54)[C@H](O)[C@@H]3O)[C@@H](O)[C@H]2O)c1 [NAD^+]	–	GapB protein has enzyme activities with either NAD^+ or NADP^+ as a cofactor
